Here are results for 15 compounds from PubChem BioAssay (NCI).

SMILES strings stand for the structures.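 Following 48 hours of exposure in 96-well plates, responses at five concentrations were used to interpolate endpoints linearly. GI50 = concentration required for 50% inhibition of growth. Definition used: TGI = concentration required for complete inhibition of growth.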 Where a SMILES comes first, the peptide text is derived from it. The star is where a group is joined. Bn = c1ccc(C*)cc1 Some results are limits rather than exact numbers.

Among the test systems are HCT-116 colon; MCF7 breast; MDA-MB-231 breast; MOLT-4 leukemia; PC-3 prostate; SNB-19 CNS; SNB-75 CNS; SW-620 colon; EKVX NSCLC; RXF 393 renal.
Holding throughout (assay): DTP human tumour cell line panel, 48 h

Turning to `O=C1CCc2ccc3c(c21)CC1(Cc2ccccc2C1)C3`, the TGI – broadly, the concentration at which net growth stops – is 17.6 µM in the assay on HCT-116 colon; more than 100 µM in the assay with MCF7 breast; 40.2 µM in the assay with MDA-MB-231 breast; more than 100 µM with MOLT-4 leukemia; more than 100 µM in the assay on PC-3 prostate; more than 100 µM with SNB-19 CNS. Also, the total growth inhibition concentration (TGI) in the assay with SNB-75 CNS and with SW-620 colon was more than 100 µM throughout.

`CC(C)CCn1nc(N)c2nc3ccccc3nc21`: the TGI in the assay on EKVX NSCLC is more than 100 µM; in the assay with HCT-116 colon, more than 100 µM; with MCF7 breast, more than 100 µM; with MOLT-4 leukemia, 94.9 µM; in the assay with PC-3 prostate it was more than 100 µM; in the assay on RXF 393 renal, more than 100 µM. Moreover, the TGI in the assay on SNB-19 CNS, in the assay with SNB-75 CNS and in the assay with SW-620 colon was more than 100 µM each time.

Turning to `COC(=O)C(CC(C)C)NC(=O)C(N)Cc1ccc(OCc2ccccc2)cc1` (stereo not given) (H-Tyr(Bn)-Leu-OMe; configuration not given here), the TGI in the assay on EKVX NSCLC, in the assay with HCT-116 colon, in the assay on MDA-MB-231 breast, in the assay on MOLT-4 leukemia, in the assay on PC-3 prostate and in the assay on RXF 393 renal was more than 10 µM throughout. Further, the TGI in the assay on SNB-19 CNS, in the assay on SNB-75 CNS and with SW-620 colon was more than 10 µM each time.

On to `O=C(O)CC(NC(=O)/C(=C/c1ccccc1O)NC(=O)c1ccccc1)C(=O)O` (stereo not given), for which the TGI with EKVX NSCLC, in the assay with HCT-116 colon, in the assay on MCF7 breast, with MDA-MB-231 breast, with MOLT-4 leukemia and in the assay on PC-3 prostate was more than 100 µM in each case. Moreover, the TGI with SNB-75 CNS and in the assay on SW-620 colon was more than 100 µM each time.

`CC(C)(C)OC(=O)n1c(-c2ccccc2F)cc(=O)c2cc3c(cc21)OCO3`: the TGI in the assay with EKVX NSCLC is more than 100 µM; in the assay on HCT-116 colon it was more than 31.8 µM; in the assay on MCF7 breast, more than 100 µM; in the assay with MOLT-4 leukemia it was 10 µM; with PC-3 prostate, more than 100 µM; in the assay with RXF 393 renal, more than 40.3 µM. For the same compound, the TGI in the assay with SNB-19 CNS, in the assay with SNB-75 CNS and in the assay on SW-620 colon was more than 100 µM throughout.

Turning to `c1csc(-c2c3ccc(=[N+]4CCCCC4)cc-3oc3cc(N4CCCCC4)ccc23)c1`, the GI50 (in general, the concentration giving 50% growth inhibition) with MOLT-4 leukemia was 0.0515 µM; with PC-3 prostate it was 0.0373 µM; in the assay with RXF 393 renal, 0.133 µM; in the assay with SNB-75 CNS, 0.123 µM. Further, the TGI in the assay on MOLT-4 leukemia amounted to 0.473 µM; with PC-3 prostate, 0.177 µM; in the assay with RXF 393 renal, 0.273 µM; in the assay on SNB-75 CNS it was 0.508 µM.

Regarding `C=C(C)[C@@]1(O[Si](C)(C)C)CCCC[C@@H]1CC(Sc1ccccc1)Sc1ccccc1`, the TGI in the assay on EKVX NSCLC was determined as 32.1 µM; with MCF7 breast, 27.6 µM; with MDA-MB-231 breast, 32.1 µM; with MOLT-4 leukemia, 25.7 µM; in the assay with PC-3 prostate it was 27.4 µM; with RXF 393 renal it was 24.6 µM. The TGI worked out at 30.6 µM in the assay with SNB-19 CNS, 25.7 µM in the assay on SNB-75 CNS and 30.2 µM in the assay with SW-620 colon.

Turning to `CCOC(=O)[C@@H]1ON2O[C@@H](OC3CCCC3(c3ccccc3)c3ccccc3)C[C@H]3OC(=O)[C@@H]1C32` (stereo not given in full), the TGI in the assay on EKVX NSCLC is more than 100 µM; in the assay on HCT-116 colon, more than 100 µM; in the assay with MCF7 breast it was 52.1 µM; in the assay on MDA-MB-231 breast, 49 µM; with MOLT-4 leukemia it was more than 100 µM; with RXF 393 renal, 48.2 µM. Besides, the TGI is more than 100 µM in the assay on SNB-75 CNS and 64.5 µM in the assay on SW-620 colon.

Consider `N#CC(=N)c1ncn(-c2ccccc2N)c1N`, for which the total growth inhibition concentration (TGI) in the assay on EKVX NSCLC, in the assay with HCT-116 colon, with MCF7 breast, in the assay with MDA-MB-231 breast, with MOLT-4 leukemia and with PC-3 prostate was more than 100 µM throughout. In addition, the TGI in the assay on SNB-19 CNS, in the assay on SNB-75 CNS and in the assay on SW-620 colon was more than 100 µM throughout.

On to `O=C1CC(Sc2nc3ccc(I)cc3c(=O)n2Cc2ccccc2)C(=O)NN1` (stereo not given), for which the TGI with EKVX NSCLC amounted to 31.8 µM; in the assay on HCT-116 colon it was 29.1 µM; in the assay on MCF7 breast, 28.2 µM; with MDA-MB-231 breast it was 29.3 µM; in the assay with MOLT-4 leukemia it was 42.6 µM; in the assay with PC-3 prostate, 30.7 µM. The TGI in the assay on SNB-19 CNS was found to be 39.1 µM; with SNB-75 CNS, 24.5 µM; in the assay with SW-620 colon, 35.2 µM.

Consider `Nc1nc(Nc2ccc(Cl)cc2)sc1C(=O)c1cccs1`, for which the TGI with EKVX NSCLC was 69.7 µM; in the assay on HCT-116 colon it was more than 100 µM; with MCF7 breast it was more than 100 µM; in the assay with MDA-MB-231 breast, more than 100 µM; in the assay with MOLT-4 leukemia, more than 100 µM; with PC-3 prostate it was more than 100 µM. In addition, the results for the TGI in the assay with RXF 393 renal, in the assay on SNB-19 CNS and with SW-620 colon were 42 µM, 47.6 µM and more than 100 µM, respectively.

Turning to `Cc1cc2nc(-c3cc(C(C)(C)C)c(O)c(C(C)(C)C)c3)[nH]c2cc1C`, the TGI is more than 100 µM with EKVX NSCLC; more than 100 µM in the assay on MDA-MB-231 breast; 27.1 µM in the assay with MOLT-4 leukemia; more than 100 µM with PC-3 prostate; more than 100 µM in the assay on RXF 393 renal; more than 100 µM in the assay with SNB-19 CNS. The TGI was more than 100 µM in the assay with SNB-75 CNS and 13.5 µM in the assay on SW-620 colon.

Take `Cc1cc2c(nn1)-c1ccccc1C2=O`: the concentration for total growth inhibition (TGI) in the assay on EKVX NSCLC, in the assay on HCT-116 colon, with MCF7 breast, with MDA-MB-231 breast, with MOLT-4 leukemia and with PC-3 prostate was more than 10 µM in each case. In addition, the TGI with RXF 393 renal, in the assay on SNB-19 CNS and with SW-620 colon was more than 10 µM in each case.

On to `OCC(O)C(O)C(O)/C=N/Nc1nc(O)c(/C=C2\C=Nc3ccccc32)[nH]1` (stereo not given), for which the TGI with EKVX NSCLC, in the assay with HCT-116 colon, in the assay with MCF7 breast, in the assay with MDA-MB-231 breast, in the assay with MOLT-4 leukemia and in the assay on RXF 393 renal was more than 100 µM in each case. Also, the TGI in the assay on SNB-19 CNS, with SNB-75 CNS and in the assay on SW-620 colon was more than 100 µM throughout.

With `COc1ccccc1N1CCN(CCCNC(=O)c2cc(Cl)c(N)c(Cl)c2)CC1`, the TGI with EKVX NSCLC was more than 100 µM; in the assay with HCT-116 colon it was more than 100 µM; in the assay on MCF7 breast it was more than 100 µM; in the assay with MDA-MB-231 breast, more than 100 µM; in the assay with MOLT-4 leukemia, 92.6 µM; with RXF 393 renal it was 91 µM. Moreover, the TGI in the assay on SNB-19 CNS, in the assay on SNB-75 CNS and in the assay with SW-620 colon was more than 100 µM in each case.
